Laboratory results taken from patent US8999664B2, “Method of improving salmon meat color” (JX Nippon Oil & Energy Corporation, priority 2006, dated 2015).

Assays:
[1] = test system: silver salmons (Oncorhynchus kisutch); experiment: Cultivation of silver salmon with carotenoid feed: fish weight and flesh color by spectrometer; format: in vivo
Text: The flesh color of a landed salmon can be quantified with the L*a*b* color system by measuring the color using a spectrometer. L* represents the luminance, a* represents the chroma red, and b* represents chroma yellow. A higher value of a*/b* represents a color more reddish than orangish, and a lower value of a*/b* represents a color more orangish than reddish. […] 300 silver salmons (Oncorhynchus kisutch) each weighing about 200 g were cultivated as a test division of being fed with the above-described fermented product, and another 300 silver salmons each weighing about 200 g were cultivated as a test division of being fed with the above-described synthetic product. The salmons were fed in satiation in a marine fish pen for 6 months. After the 6 months of cultivating, 10 fish of each test division were weighed. […] The fish were immediately killed by cutting medulla and frozen for preservation. After being thawed, the fish flesh was milled by a coffee mill, and a part thereof was put into a polyethylene bag to measure the color tone thereof by a spectrometer CM-508i (Minolta). […] From a part of the milled fish flesh, the carotenoid colorant was extracted, and analyzed in terms of the content of each carotenoid compound by HPLC.

[2] = test system: Atlantic salmons (Salmo salar); experiment: Cultivation of Atlantic salmon with carotenoid feed: fish weight and flesh color by spectrometer; format: in vivo
Text: The flesh color of a landed salmon can be quantified with the L*a*b* color system by measuring the color using a spectrometer. L* represents the luminance, a* represents the chroma red, and b* represents chroma yellow. A higher value of a*/b* represents a color more reddish than orangish, and a lower value of a*/b* represents a color more orangish than reddish. […] 400 Atlantic salmons (Salmo salar) each weighing about 300 g were cultivated as a test division of being fed with the above-described fermented product, and another 400 Atlantic salmons each weighing about 300 g were cultivated as a test division of being fed with the above-described synthetic product. The salmons were fed in satiation in a marine fish pen for 12 months. After the 12 months of cultivating, 20 fish of each test division were landed and weighed. […] The fish were immediately killed by cutting medulla, and the fish flesh was measured in terms of the color tone by a spectrometer. […] After the measurement, the fish flesh was frozen for preservation for 1 month. After being thawed, the fish flesh of the 20 fish of each test division was analyzed in terms of the content of each carotenoid compound.

[3] = test system: king salmons (Oncorhynchus tshawytscha); experiment: Cultivation of king salmon with carotenoid feed: fish weight and flesh color by spectrometer; format: in vivo
Text: The flesh color of a landed salmon can be quantified with the L*a*b* color system by measuring the color using a spectrometer. L* represents the luminance, a* represents the chroma red, and b* represents chroma yellow. A higher value of a*/b* represents a color more reddish than orangish, and a lower value of a*/b* represents a color more orangish than reddish. […] 100 king salmons (Oncorhynchus tshawytscha) each weighing about 200 g were cultivated as a test division of being fed with the above-described fermented product, and another 100 king salmons each weighing about 200 g were cultivated as a test division of being fed with the above-described synthetic product. The salmons were fed in satiation in a marine fish pen for 3 months. After the 3 months of cultivating, 15 fish of each test division were sampled and weighed. […] The fish were immediately killed by cutting medulla. […] After the measurement, the fish flesh was frozen for preservation for 1 month. After being thawed, the fish flesh of the fish of each test division was analyzed in terms of the content of each carotenoid compound.

[4] = test system: rainbow trouts (Oncorhynchus mykiss); experiment: Cultivation of rainbow trout with carotenoid feed: fish weight and flesh color by spectrometer; format: in vivo
Text: The flesh color of a landed salmon can be quantified with the L*a*b* color system by measuring the color using a spectrometer. L* represents the luminance, a* represents the chroma red, and b* represents chroma yellow. A higher value of a*/b* represents a color more reddish than orangish, and a lower value of a*/b* represents a color more orangish than reddish. […] 50 rainbow trouts (Oncorhynchus mykiss) each weighing about 100 g were cultivated in a water tank as a test division of being fed with the above-described fermented product, and another 50 rainbow trouts each weighing about 100 g were cultivated in a water tank as a test division of being fed with the above-described synthetic product. The trouts of each test division were fed in satiation in fresh water for 3 months. After the 3 months of cultivating, 12 fish of each test division were weighed. […] The fish were immediately killed by cutting medulla. […] After the measurement, the fish flesh was frozen for preservation. After being thawed, the fish flesh of the 12 fish of each test division was analyzed in terms of the content of each carotenoid compound.

[5] = Carotenoid content in fish flesh of king salmon by HPLC; format: in vivo, Oncorhynchus tshawytscha; details: 3 months; for Ratio to astaxanthin: king salmon fish flesh; for Content in fish flesh: king salmon, flesh frozen 1 month, average of 15 fish
Protocol: In the examples, the quantification of the carotenoid colorant was performed using high performance liquid chromatography (HPLC). Two columns of Wakosil-II 5 SIL-100 φ4.6×250 mm (produced by Wako Pure Chemical Industries, Ltd.) were connected to each other. An n-hexane:tetrahydrofuran:methanol (40:20:1) mixed solution was used as a mobile phase. A constant room temperature and a flow rate of 1.0 ml/min were used. The detection was performed at a wavelength of 470 nm. The feed or fish flesh was milled, and then the colorant was extracted with a tetrahydrofuran:methanol (20:1) mixed solution. The colorant was appropriately diluted with the mobile phase and analyzed by HPLC. 100 king salmons (Oncorhynchus tshawytscha) each weighing about 200 g were cultivated as a test division of being fed with the above-described fermented product, and another 100 king salmons each weighing about 200 g were cultivated as a test division of being fed with the above-described synthetic product. The salmons were fed in satiation in a marine fish pen for 3 months. After the 3 months of cultivating, 15 fish of each test division were sampled and weighed. […] The fish were immediately killed by cutting medulla. […] After the measurement, the fish flesh was frozen for preservation for 1 month. After being thawed, the fish flesh of the fish of each test division was analyzed in terms of the content of each carotenoid compound.

[6] = Carotenoid content in fish flesh of rainbow trout by HPLC; format: in vivo, Oncorhynchus mykiss; details: 3 months; for Ratio to astaxanthin: rainbow trout fish flesh; for Content in fish flesh: rainbow trout, average of 12 fish
Protocol: In the examples, the quantification of the carotenoid colorant was performed using high performance liquid chromatography (HPLC). Two columns of Wakosil-II 5 SIL-100 φ4.6×250 mm (produced by Wako Pure Chemical Industries, Ltd.) were connected to each other. An n-hexane:tetrahydrofuran:methanol (40:20:1) mixed solution was used as a mobile phase. A constant room temperature and a flow rate of 1.0 ml/min were used. The detection was performed at a wavelength of 470 nm. The feed or fish flesh was milled, and then the colorant was extracted with a tetrahydrofuran:methanol (20:1) mixed solution. The colorant was appropriately diluted with the mobile phase and analyzed by HPLC. 50 rainbow trouts (Oncorhynchus mykiss) each weighing about 100 g were cultivated in a water tank as a test division of being fed with the above-described fermented product, and another 50 rainbow trouts each weighing about 100 g were cultivated in a water tank as a test division of being fed with the above-described synthetic product. The trouts of each test division were fed in satiation in fresh water for 3 months. After the 3 months of cultivating, 12 fish of each test division were weighed. […] The fish were immediately killed by cutting medulla. […] After the measurement, the fish flesh was frozen for preservation. After being thawed, the fish flesh of the 12 fish of each test division was analyzed in terms of the content of each carotenoid compound.

[7] = Carotenoid content in fish flesh of Atlantic salmon by HPLC; format: in vivo, Salmo salar; details: 12 months; for Ratio to astaxanthin: Atlantic salmon fish flesh; for Content in fish flesh: Atlantic salmon, flesh frozen 1 month, average of 20 fish
Protocol: In the examples, the quantification of the carotenoid colorant was performed using high performance liquid chromatography (HPLC). Two columns of Wakosil-II 5 SIL-100 φ4.6×250 mm (produced by Wako Pure Chemical Industries, Ltd.) were connected to each other. An n-hexane:tetrahydrofuran:methanol (40:20:1) mixed solution was used as a mobile phase. A constant room temperature and a flow rate of 1.0 ml/min were used. The detection was performed at a wavelength of 470 nm. The feed or fish flesh was milled, and then the colorant was extracted with a tetrahydrofuran:methanol (20:1) mixed solution. The colorant was appropriately diluted with the mobile phase and analyzed by HPLC. 400 Atlantic salmons (Salmo salar) each weighing about 300 g were cultivated as a test division of being fed with the above-described fermented product, and another 400 Atlantic salmons each weighing about 300 g were cultivated as a test division of being fed with the above-described synthetic product. The salmons were fed in satiation in a marine fish pen for 12 months. After the 12 months of cultivating, 20 fish of each test division were landed and weighed. […] The fish were immediately killed by cutting medulla, and the fish flesh was measured in terms of the color tone by a spectrometer. […] After the measurement, the fish flesh was frozen for preservation for 1 month. After being thawed, the fish flesh of the 20 fish of each test division was analyzed in terms of the content of each carotenoid compound.

[8] = Carotenoid content in fish flesh of silver salmon by HPLC; format: in vivo, Oncorhynchus kisutch; details: 6 months; for Ratio to astaxanthin: silver salmon fish flesh; for Content in fish flesh: silver salmon, average of 10 fish
Protocol: In the examples, the quantification of the carotenoid colorant was performed using high performance liquid chromatography (HPLC). Two columns of Wakosil-II 5 SIL-100 φ4.6×250 mm (produced by Wako Pure Chemical Industries, Ltd.) were connected to each other. An n-hexane:tetrahydrofuran:methanol (40:20:1) mixed solution was used as a mobile phase. A constant room temperature and a flow rate of 1.0 ml/min were used. The detection was performed at a wavelength of 470 nm. The feed or fish flesh was milled, and then the colorant was extracted with a tetrahydrofuran:methanol (20:1) mixed solution. The colorant was appropriately diluted with the mobile phase and analyzed by HPLC. 300 silver salmons (Oncorhynchus kisutch) each weighing about 200 g were cultivated as a test division of being fed with the above-described fermented product, and another 300 silver salmons each weighing about 200 g were cultivated as a test division of being fed with the above-described synthetic product. The salmons were fed in satiation in a marine fish pen for 6 months. After the 6 months of cultivating, 10 fish of each test division were weighed. […] The fish were immediately killed by cutting medulla and frozen for preservation. After being thawed, the fish flesh was milled by a coffee mill, and a part thereof was put into a polyethylene bag to measure the color tone thereof by a spectrometer CM-508i (Minolta). […] From a part of the milled fish flesh, the carotenoid colorant was extracted, and analyzed in terms of the content of each carotenoid compound by HPLC.

[9] = milled thawed fish flesh, spectrometer CM-508i, 6 months, average of 10 fish
[10] = flesh color tone by spectrometer, 12 months, average of 20 fish
[11] = flesh color by spectrometer, 3 months, average of 15 fish
[12] = flesh color by spectrometer, 3 months, average of 12 fish

Compound	Ratio to astaxanthin ([5]; Fermented product division)	Content in fish flesh ([5]; Fermented product division)	Content in fish flesh ([5]; Synthetic product division)	Ratio to astaxanthin ([6]; Fermented product division)	Content in fish flesh ([6]; Fermented product division)	Content in fish flesh ([6]; Synthetic product division)	Ratio to astaxanthin ([7]; Fermented product division)	Content in fish flesh ([7]; Fermented product division)	Content in fish flesh ([7]; Synthetic product division)	Ratio to astaxanthin ([8]; Fermented product division)	Content in fish flesh ([8]; Fermented product division)	Content in fish flesh ([8]; Synthetic product division)	also measured
CC1=C(/C=C/C(C)=C/C=C/C(C)=C/C=C/C=C(C)/C=C/C=C(C)/C=C/C2=C(C)C(=O)[C@@H](O)CC2(C)C)C(C)(C)C[C@H](O)C1=O [Synthetic product, astaxanthin]													Fish flesh color exhibited ([1]; 6 months of cultivating): unnatural red color; L* value (luminance) [1, 9]: 55.6; a* value (chroma red) [1, 9]: 26.0; b* value (chroma yellow) [1, 9]: 26.2; a*/b* ([1]; milled thawed fish flesh, spectrometer, 6 months, average of 10 fish): 0.99; Fish flesh color exhibited ([2]; 12 months of cultivating): reddish orange color with a high level of chroma red; L* value (luminance) [2, 10]: 50.0; a* value (chroma red) [2, 10]: 26.2; a*/b* [2, 10]: 0.94; b* value (chroma yellow) [2, 10]: 27.9; Fish flesh color exhibited ([3]; 3 months of cultivating): reddish orange color close to a red color; L* value (luminance) [3, 11]: 50.8; a* value (chroma red) [3, 11]: 23.7; a*/b* [3, 11]: 0.93; b* value (chroma yellow) [3, 11]: 25.5; Fish flesh color exhibited ([4]; 3 months of cultivating): reddish orange color close to a red color; L* value (luminance) [4, 12]: 41.8; a* value (chroma red) [4, 12]: 9.1; a*/b* [4, 12]: 0.66; b* value (chroma yellow) [4, 12]: 13.8
CC1=C(/C=C/C(C)=C/C=C/C(C)=C/C=C/C=C(C)/C=C/C=C(C)/C=C/C2=C(C)CCCC2(C)C)C(C)(C)CCC1 [β-carotin]	0.5 or less %	0.02 or less mg/kg	0.02 or less mg/kg	0.6 or less %	0.02 or less mg/kg	0.02 or less mg/kg	0.5 or less %	0.02 or less mg/kg	0.02 or less mg/kg	0.2 or less %	0.02 or less mg/kg	0.02 or less mg/kg	
Asteroidenone	2.2%	0.1 mg/kg	0.02 or less mg/kg	2.9%	0.1 mg/kg	0.02 or less mg/kg	2.4%	0.1 mg/kg	0.02 or less mg/kg	1.9%	0.2 mg/kg	0.02 or less mg/kg	
